Data: the supplement of paper PMC10307832

Columns and labels:
Assay in all cases: relative viability (nuclei count vs DMSO), 5 days (fraction); higher = more cells survive
AT9283 + Lapatinib = compound: O=C(Nc1c[nH]nc1-c1nc2ccc(CN3CCOCC3)cc2[nH]1)NC1CC1 [AT9283] + CS(=O)(=O)CCNCc1ccc(-c2ccc3ncnc(Nc4ccc(OCc5cccc(F)c5)c(Cl)c4)c3c2)o1 [Lapatinib] (partner 2 µM)
How it was run: (§1)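 Lung cancer cell lines, seeded in 1536-well plates, were treated the following day by pin tool with a single drug or with five library-drug doses (not always all listed) in √10 steps on top of a fixed anchor-drug dose. Cells were fixed and nuclei stained in one step after 5 days, and nuclei were counted. Relative viability is the nuclei count for treated wells divided by that for vehicle wells, reported as medians of duplicate plates.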

Erlotinib + Tozasertib = compound: C#Cc1cccc(Nc2ncnc3cc(OCCOC)c(OCCOC)cc23)c1 [Erlotinib] + Cc1cc(Nc2cc(N3CCN(C)CC3)nc(Sc3ccc(NC(=O)C4CC4)cc3)n2)n[nH]1 [Tozasertib] (partner 0.1 µM)
How it was run: as §1

Erlotinib + Phenformin = compound: C#Cc1cccc(Nc2ncnc3cc(OCCOC)c(OCCOC)cc23)c1 [Erlotinib] + N=C(N)NC(=N)NCCc1ccccc1 [Phenformin] (partner 250 µM)
How it was run: as §1

Erlotinib + Decitabine = compound: C#Cc1cccc(Nc2ncnc3cc(OCCOC)c(OCCOC)cc23)c1 [Erlotinib] + Nc1ncn([C@H]2C[C@H](O)[C@@H](CO)O2)c(=O)n1 [Decitabine] (partner 2 µM)
How it was run: as §1

Erlotinib + Vorinostat = compound: C#Cc1cccc(Nc2ncnc3cc(OCCOC)c(OCCOC)cc23)c1 [Erlotinib] + O=C(CCCCCCC(=O)Nc1ccccc1)NO [Vorinostat] (partner 1 µM)
How it was run: as §1

| Cell Line | relative viability (AT9283 + Lapatinib; first compound 0.003 µM) | relative viability (AT9283 + Lapatinib; first compound 0.03 µM) | relative viability (AT9283 + Lapatinib; first compound 0.09487 µM) | relative viability (AT9283 + Lapatinib; first compound 0.3 µM) | relative viability (Erlotinib + Tozasertib; first compound 0.02 µM) | relative viability (Erlotinib + Tozasertib; first compound 0.2 µM) | relative viability (Erlotinib + Tozasertib; first compound 0.6325 µM) | relative viability (Erlotinib + Tozasertib; first compound 2 µM) | relative viability (Erlotinib + Phenformin; first compound 0.02 µM) | relative viability (Erlotinib + Phenformin; first compound 0.2 µM) | relative viability (Erlotinib + Phenformin; first compound 0.6325 µM) | relative viability (Erlotinib + Phenformin; first compound 2 µM) | relative viability (Erlotinib + Decitabine; first compound 0.02 µM) | relative viability (Erlotinib + Decitabine; first compound 0.2 µM) | relative viability (Erlotinib + Decitabine; first compound 0.6325 µM) | relative viability (Erlotinib + Decitabine; first compound 2 µM) | relative viability (Erlotinib + Vorinostat; first compound 0.02 µM) | relative viability (Erlotinib + Vorinostat; first compound 0.2 µM) | relative viability (Erlotinib + Vorinostat; first compound 0.6325 µM) | relative viability (Erlotinib + Vorinostat; first compound 2 µM) |
| --- | --- | --- | --- | --- | --- | --- | --- | --- | --- | --- | --- | --- | --- | --- | --- | --- | --- | --- | --- | --- |
| NCI-H647 | 1.06 | 0.124 | 0.123 | 0.0895 | 0.257 | 0.179 | 0.28 | 0.136 | 0.586 | 0.476 | 0.632 | 0.353 | 0.422 | 0.392 | 0.442 | 0.456 | 0.735 | 0.485 | 0.556 | 0.565 |
| NCI-H661 | 0.471 | 0.518 | 0.276 | 0.286 | 0.344 | 0.381 | 0.341 | 0.394 | 0.301 | 0.264 | 0.269 | 0.318 | 0.566 | – | 0.551 | 0.384 | 0.834 | 0.758 | 0.775 | 0.646 |
| NCI-H23 | 0.968 | 0.395 | 0.225 | 0.207 | 0.387 | 0.344 | 0.299 | 0.26 | – | 0.662 | 0.684 | 0.72 | 0.312 | 0.293 | 0.324 | 0.337 | 0.704 | 0.502 | 0.666 | 0.485 |
| NCI-H727 | 0.847 | 0.435 | 0.28 | 0.249 | 0.616 | 0.51 | 0.493 | 0.424 | 0.572 | – | 0.639 | 0.404 | 0.898 | 0.596 | 0.92 | 0.731 | 1.29 | 1.24 | 1.03 | 1.01 |
| EKVX | 0.241 | 0.188 | 0.128 | 0.108 | 0.329 | 0.226 | 0.212 | 0.111 | 0.245 | 0.205 | 0.127 | 0.137 | 0.341 | 0.232 | 0.234 | 0.212 | 0.716 | 0.372 | 0.323 | 0.259 |
| NCI-H2087 | 0.894 | 0.269 | 0.222 | 0.186 | 0.259 | 0.279 | 0.191 | 0.132 | 0.516 | 0.483 | 0.506 | 0.304 | 0.286 | 0.238 | 0.282 | 0.208 | 0.778 | 0.788 | 0.765 | 0.434 |
| SK-LU-1 | 0.933 | 0.371 | 0.274 | 0.272 | 0.336 | 0.352 | 0.332 | 0.267 | 0.621 | 0.536 | 0.573 | 0.479 | 0.661 | 0.707 | 0.634 | 0.592 | 1.01 | 0.729 | 0.899 | 0.718 |
| NCI-H322M | 0.548 | 0.272 | 0.32 | 0.335 | 0.42 | 0.374 | 0.331 | 0.314 | 0.816 | 0.592 | 0.539 | 0.421 | 0.718 | 0.582 | 0.55 | 0.545 | 0.832 | 0.716 | 0.688 | 0.546 |
